Assay results from ChEMBL document CHEMBL1649251, “Antischistosomal activity of hexadecyloxypropyl cyclic 9-(S)-[3-hydroxy-2-(phosphonomethoxy)propyl]adenine and other alkoxyalkyl esters of acyclic nucleoside phosphonates assessed by schistosome worm killing in vitro” (Antimicrob Agents Chemother, 2009).

Experiments:
Schistosoma mansoni [1] = assay: Antischistosomal activity against Schistosoma mansoni isolated from infected Syrian golden hamsters assessed as worm mortality at 100 uM treated for overnight followed by drug washout measured on day 5 relative to control; format: functional
Schistosoma mansoni [2] = assay: Antischistosomal activity against Schistosoma mansoni isolated from infected Syrian golden hamsters assessed as worm mortality at 75 uM treated for overnight followed by drug washout measured on day 5 relative to control; format: functional
Schistosoma mansoni [3] = assay: Antischistosomal activity against Schistosoma mansoni isolated from infected Syrian golden hamsters assessed as worm mortality at 50 uM treated for overnight followed by drug washout measured on day 5 relative to control; format: functional
Schistosoma mansoni [4] = assay: Antischistosomal activity against Schistosoma mansoni isolated from infected Syrian golden hamsters assessed as worm mortality at 25 uM treated for overnight followed by drug washout measured on day 5 relative to control; format: functional
Schistosoma mansoni [5] = assay: Antischistosomal activity against Schistosoma mansoni isolated from infected Syrian golden hamsters assessed as worm mortality at 12.5 uM treated for overnight followed by drug washout measured on day 5 relative to control; format: functional
Schistosoma mansoni [6] = assay: Antischistosomal activity against Schistosoma mansoni isolated from infected Syrian golden hamsters assessed as worm mortality at 5 uM treated for overnight followed by drug washout measured on day 5; format: functional
Schistosoma mansoni [7] = assay: Antischistosomal activity against Schistosoma mansoni isolated from infected Syrian golden hamsters assessed as worm mortality treated for overnight followed by drug washout measured on day 5; format: functional, organism-based; conditions: 120 h

| Structure (SMILES) | Activity (Schistosoma mansoni [1]) [%] | Activity (Schistosoma mansoni [2]) [%] | Activity (Schistosoma mansoni [3]) [%] | Activity (Schistosoma mansoni [4]) [%] | Activity (Schistosoma mansoni [5]) [%] | Activity (Schistosoma mansoni [6]) [%] | EC50 (Schistosoma mansoni [7]) [µM] |
| --- | --- | --- | --- | --- | --- | --- | --- |
| CCCCCCCCCCCCCCCCCCOCCOP(=O)(O)CO[C@H](CO)Cn1cnc2c(N)ncnc21 | 47 | 33 | 40 | 25 | 12.5 | 12.5 | > 100 |
| CCCCCCCCCCCCCCCCOCCCOP(=O)(O)CO[C@H](CO)Cn1cnc2c(N)ncnc21 | 30.8 | 28.6 | 32.3 | 18.8 | 12.5 | 6.25 | > 100 |
| CCCCCCCCCCCCCCCCOCCCOP1(=O)CO[C@@H](Cn2ccc(N)nc2=O)CO1 (stereo partly specified) | 100 | 64 | 67 | 36 | 33 | 13 | 28 |
| CCCCCCCCCCCCCCCCCCOCCOP(=O)(O)CO[C@H](CO)Cn1cnc2c(=O)[nH]c(N)nc21 | 33 | 36 | 20 | 15 | 7 | 13 | > 100 |
| O=C(C1CCCCC1)N1CC(=O)N2CCc3ccccc3C2C1 (stereo unspecified) [PRAZIQUANTEL] | 100 | 100 | 100 | 100 | 100 | 100 | 0.22 |
| CCCCCCCCCCCCCCCCOCCCOP1(=O)CO[C@@H](Cn2cnc3c(N)ncnc32)CO1 (stereo partly specified) | 93.3 | 84.6 | 78.6 | 69.2 | 53.8 | 50 | 5 |
| Nc1ncnc2c1ncn2C[C@@H](CO)OCP(=O)(O)O | 13 | 12.5 | 7 | 7 | 6.25 | 6.7 | > 100 |
| CCCCCCCCCCCCCCCCCCOCCOP(=O)(O)CO[C@H](CO)Cn1cnc2c(N)nc(N)nc21 | 40 | 40 | 33 | 14 | 8 | 7 | > 100 |
